Test results as given in publication PMC11114115 (Molecular Pharmacology, 2024).

Target: human M3R (M3 muscarinic acetylcholine receptor) (Homo sapiens, UniProt P20309)
Experiment: cell-based

Sequence of human M3R (M3 muscarinic acetylcholine receptor) (P20309 whole entry): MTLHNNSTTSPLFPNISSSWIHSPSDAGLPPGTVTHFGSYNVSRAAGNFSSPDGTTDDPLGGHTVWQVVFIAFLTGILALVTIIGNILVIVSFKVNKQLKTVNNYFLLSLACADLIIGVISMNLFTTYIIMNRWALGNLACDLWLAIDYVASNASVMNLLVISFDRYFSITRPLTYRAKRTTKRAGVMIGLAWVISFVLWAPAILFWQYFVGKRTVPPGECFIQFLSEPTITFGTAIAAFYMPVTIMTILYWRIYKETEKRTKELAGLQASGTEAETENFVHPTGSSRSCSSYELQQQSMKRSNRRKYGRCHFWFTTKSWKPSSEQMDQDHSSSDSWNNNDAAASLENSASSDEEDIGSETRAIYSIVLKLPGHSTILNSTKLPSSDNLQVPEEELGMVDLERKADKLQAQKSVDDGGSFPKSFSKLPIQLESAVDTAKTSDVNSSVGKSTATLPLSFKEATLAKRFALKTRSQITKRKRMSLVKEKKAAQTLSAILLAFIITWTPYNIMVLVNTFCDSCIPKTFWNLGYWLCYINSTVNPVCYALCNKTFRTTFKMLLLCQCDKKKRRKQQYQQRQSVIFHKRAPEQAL

## C[N+](C)(C)CC#CCN1CCCC1=O [Oxotremorine-M]
  EC50: 12.6 nM
